A short description of this data set: Stability test of KDG to heat in water (remaining rate observed according to HPLC). The data set is classed as physicochemical. The conditions noted are these: for Remaining Rate of KDG: water 10 times the amount of KDG. The protocol:
HPLC Analytic Conditions: ShodexAsahipack NH2-P50 (manufactured by Showa Denko K.K.), 50 mM sodium hydrogen phosphate aqueous solution, flow rate of 1 ml/min. and detection UV of 210 nm.
1.21 g (5.61 mmole) of KDG potassium salt was dissolved in 10 g of water (10 times the amount of KDG). pH of the solution was 7.3. Subsequently, when 64 mg (1.69 mmole: 0.3 equivalent) of granular sodium borohydride was added at 25° C., the reaction temperature increased to 33° C. Furthermore, pH after the completion of the reaction was 10.8. After the reaction was completed, when observed by HPLC, the reaction yield of metasaccharic acid was 94%. The reaction heat was observed as remarkable. […] In order to carry out the reaction with the good yield, stability to the heat of KDG was measured in the presence of water with 10 times the amount of KDG. (Table 1) (Table 2) (Table 3)
Here, the results of stability test to the KDG heat in the presence of water 10 times the amount of KDG are shown below. (Table 4)

The values that follow come from patent publication US20060069289A1, “Process for production 2-deoxyaldose compound” (MITSUI CHEMICALS, INC., priority 2003, published 2006).

As to `O=C(O)C(O)CC(O)C(O)CO` (stereo not drawn), the “Stability (in words)” value (generated product of the sodium borohydride reduction, aqueous reaction conditions) is recorded as “stable”.

On to `O=C(O)C(=O)C[C@H](O)[C@H](O)CO` [KDG, 2-keto-3-deoxy-D-gluconic acid], for which the “Remaining Rate of KDG” value was 101% (pH 7.0, 25° C., 2 hours); 100% (pH 7.0, 25° C., 4 hours); 100% (pH 7.0, 25° C., 21 hours); 101% (pH 7.0, 25° C., 24 hours); 100% (pH 7.0, 50° C., 2 hours); 101% (pH 7.0, 50° C., 4 hours). Also, the “Remaining Rate of KDG” value runs as follows: (pH 7.0, 50° C., 21 hours) 100%; (pH 7.0, 50° C., 24 hours) 99%; (pH 8.5, 25° C., 2 hours) 100%; (pH 8.5, 25° C., 4 hours) 99%; (pH 8.5, 25° C., 21 hours) 101%; (pH 8.5, 25° C., 24 hours) 100%. Moreover, the “Remaining Rate of KDG” value worked out at 101% (pH 8.5, 50° C., 2 hours); 100% (pH 8.5, 50° C., 4 hours); 99% (pH 8.5, 50° C., 21 hours); 98% (pH 8.5, 50° C., 24 hours); 102% (pH 10.5, 25° C., 2 hours); 101% (pH 10.5, 25° C., 4 hours). The “Remaining Rate of KDG” value was found to be 100% (pH 10.5, 25° C., 21 hours); 101% (pH 10.5, 25° C., 24 hours); 101% (pH 10.5, 50° C., 2 hours); 99% (pH 10.5, 50° C., 4 hours); 94% (pH 10.5, 50° C., 21 hours); 93% (pH 10.5, 50° C., 24 hours). The “Remaining Rate of KDG” value is recorded as 101% (pH 12.0, 4° C., 2 hours); 99% (pH 12.0, 4° C., 4 hours); 100% (pH 12.0, 4° C., 21 hours); 98% (pH 12.0, 4° C., 24 hours); 99% (pH 12.0, 25° C., 2 hours); 95% (pH 12.0, 25° C., 4 hours). The “Remaining Rate of KDG” value was found to be 84% (pH 12.0, 25° C., 21 hours); 79% (pH 12.0, 25° C., 24 hours); 61% (pH 12.0, 50° C., 2 hours); 56% (pH 12.0, 50° C., 4 hours). The “Stability to heat (in words)” value (pH 12.0, 50° C.) is listed as “remarkably decomposed”.
